This note sets out measurements from US20120177567A1, “Methods of Treating Pediatric Acute Lymphoblastic Leukemia with an Anti-CD22 Immunotoxin” (priority 2010, published 2012).

Like-named read-outs stand apart in the source and are kept apart here.

For series [1], the system named is human bone marrow stromal cells. Conditions: 10 μmol/L, 72 h.
Protocol: 2×10^4 Stromal cells were plated into each well of flat-bottomed 96-well plates and cultured until confluent. On day 1 of the assay, ALL cells were resuspended in RPMI-1640 medium, 10% heat-inactivated FBS, glutamine (1×) and sodium pyruvate (1×). 3×10^5 ALL cells were added to each well of stroma-coated plates. […] SS1P (50 ng/mL), an antimesothelin Pseudomonas immunotoxin, was used as a negative control. The cytotoxicity of dexamethasone (10 μmol/L) was also tested in this assay. Cells were incubated for a further 72 h in a humidified atmosphere at 37° C. with 5% CO2.
At the end of the assay, the stromal cells were incubated with WST-1.
A further series relates to B-lineage ALL cells. Put plainly: cells. Conditions: Homo sapiens.

Description for B-lineage ALL cells: Blood and bone marrow samples were obtained from 35 patients with B-lineage ALL (Table SI) treated at the National Cancer Institute (NCI), St Jude Children's Research Hospital (SJCRH) or Johns Hopkins Hospital (JHH) with informed consent. The majority (n=22) were obtained from individuals with multiply relapsed ALL who were referred to the NCI for Phase I clinical trial participation. Thirteen patient samples from initial diagnosis were randomly selected from those available in the tumor banks at SJCRH and JHH. Thirty-three cases were characterized as pre-B ALL by flow cytometry and two as Burkitt-type/mature B-cell ALL. In all cases, >80% blasts expressed CD19 and CD22 antigens by flow cytometry. Cells were cryopreserved in RPMI-1640 medium with 10% fetal bovine serum (FBS) and 10% dimethyl sulfoxide.
Briefly, human bone marrow stromal cells that had been immortalized by telomerase transfection (developed at St Jude Children's Research Hospital) were cultured in RPMI-1640 medium (Invitrogen, Carlsbad, Calif., USA) with 10% fetal calf serum (Sigma-Aldrich, St Louis, Mo., USA). 2×10^4 Stromal cells were plated into each well of flat-bottomed 96-well plates and cultured until confluent. On day 1 of the assay, ALL cells were resuspended in RPMI-1640 medium, 10% heat-inactivated FBS, glutamine (1×) and sodium pyruvate (1×). 3×10^5 ALL cells were added to each well of stroma-coated plates. […] SS1P (50 ng/mL), an antimesothelin Pseudomonas immunotoxin, was used as a negative control. The cytotoxicity of dexamethasone (10 μmol/L) was also tested in this assay. Cells were incubated for a further 72 h in a humidified atmosphere at 37° C. with 5% CO2.
The cells were harvested by vigorous pipetting, transferred to Falcon tubes (Cat. No. 352052; BD Biosciences, San Jose, Calif., USA) and labelled with mouse anti-human CD19 antibody conjugated to fluorescein isothiocyanate (Cat. No. 555412; BD Pharmingen, San Jose, Calif., USA). […] The cells were analysed with a FACScalibur flow cytometer in combination with CellQuest (Becton Dickinson, Franklin Lakes, N.J., USA) and FlowJo software (Tree Star Inc., Ashland, Oreg., USA).
Viability was assessed by setting gates based on the light scatter properties of the blasts. Due to spontaneous cell death, the relative percentage of viable cells at the end of the assay was calculated using the following formula: (no. of CD19^+ viable cells recovered in test well/no. of CD19^+ viable cells in untreated well×100). […]
An exact Wilcoxon rank sum test was used to determine the statistical significance of the difference in unpaired observations between two groups of pediatric patients. […] Correlations between parameters were evaluated using Spearman rank correlation analysis.

Regarding `C[C@@H]1C[C@H]2[C@@H]3CCC4=CC(=O)C=C[C@]4(C)[C@@]3(F)[C@@H](O)C[C@]2(C)[C@@]1(O)C(=O)CO` [dexamethasone, Dexamethasone], the “stromal cells compared to untreated controls (WST-1)” value in series [1] is “no difference”. The viability at 10 µM in the series on B-lineage ALL cells (72 h, read-out: percentage of viable ALL cells, range, 10 μmol/l, 72 h) is 4 to 158%; with B-lineage ALL cells (read-out: percentage of viable ALL cells, median, 10 μmol/l, ALL samples from diagnosis), 29%; in the series with B-lineage ALL cells (read-out: percentage of viable ALL cells, median, 10 μmol/l, all samples) it was 40%; in the series on B-lineage ALL cells (read-out: percentage of viable ALL cells, median, 10 μmol/l, relapse samples), 42%.
